Data set [1] relates to rat TTR. The experiment in a line: Serum TTR level after LNP delivery (Rat Prealbumin (Transthyretin) ELISA). Conditions: LNP with PEG2K-DMG. Format: in vivo, rat (Sprague-Dawley). As for the experimental part:
Sprague-Dawley female rats, ranging from 6-10 weeks of age were used in each study. Animals were weighed and dosed based on individual body weight measured the morning of dosing. LNPs were dosed via the lateral tail vein in a volume of 2 mL per kilogram of animal body weight. The animals were periodically observed for adverse effects for at least 24 hours post dose.
For studies measuring in vivo editing in liver, Sprague-Dawley female rats were dosed at 0.1 mpk or 0.03 mpk, unless otherwise noted. Animals were euthanized at 6 or 7 days by carbon dioxide asphyxiation and a heart clip or by ex sanguination via cardiac puncture under isoflourane anesthesia. Blood was collected into serum separator tubes. Liver tissue was collected. Genomic DNA was isolated from the liver tissue for editing measurement by Next-Generation Sequencing (NGS).
Blood was collected and the serum was isolated as indicated. The total rat TTR serum levels were determined using a Rat Prealbumin (Transthyretin) ELISA Kit (Aviva Systems Biology, Cat. #OKIA00159). Briefly, sera were serial diluted with kit sample diluent to a final dilution of 10,000-fold. This diluted sample was then added to the ELISA plates and the assay was then carried out according to manufacturer's protocol.
In vivo editing efficiency for materials delivered with formulations including various amine lipid (or ionizable lipid) compounds in Experiments 1 through 14 as described in Tables 3 and 4 was assessed. Editing was measured using G000534 (SEQ ID NO: 5) which targets the rat TTR gene. Lipids described above were assessed for efficacy through in vivo editing experiments. LNPs were formulated at a 1:2 w/w ratio of sgRNA (SEQ ID NO: 5) and Cas9 mRNA (SEQ ID NO: 3). In Experiments 1 through 13, lipid components of the LNP are formulated in a molar ratio of 50% ionizable lipid, 38% cholesterol, 9% DSPC, and 3% PEG2K-DMG. In Experiment 14, lipid components of the LNP are formulated in a molar ratio of 50% ionizable lipid, 38% cholesterol, 9% DSPC, and 3% C13 Ether. The final LNPs used in different in vivo editing experiments were characterized to determine the encapsulation efficiency (% E), polydispersity index (PDI), and average particle size (Z-avg and number mean) according to the analytical methods provided above. The pKa values of each of the following ionizable lipids were also measured to be in the range of about 5.8 to about 7.6.
TSS was used as a vehicle-only negative control. The data are illustrated in FIGS. 1A through 14.
Background: ELISA stands for enzyme-linked immunosorbent assay.

Data set [2] in a line: LNP encapsulation efficiency of RNA (Ribogreen fluorescence assay). Format: physicochemical. The settings on record: sgRNA:mRNA 1:2. A digest of the protocol:
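RiboGreen fluorescence (ex 488/em 525 nm) measured total RNA in 1×TE with 0.2% Triton X-100 and free RNA in 1×TE alone, against standard curves of the starting RNA; encapsulation = (total − free)/total. Total RNA alternatively quantified after Triton disruption by RP-IP HPLC, UV 260 nm.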

Where [3] appears, read: Table 3, Experiments 1-13, LNP 50% ionizable lipid, 38% cholesterol, 9% DSPC, 3% PEG2K-DMG.

Values joined by “and” are separate entries in the source; they are usually repeats but may differ in a detail not shown here. Equal values may be shown once.

`CCCCCCCCC(CCCCCCCC)OC(=O)CCCCCC(=O)OCC(COC(=O)CCCCCC(=O)OC(CCCCCCCC)CCCCCCCC)COC(=O)OCCCN(CC)CC` [Compound 3, O′1,O1-(2-((((3-(diethylamino)propoxy)carbonyl)oxy)methyl)propane-1,3-diyl) 7,7′-di(heptadecan-9-yl) di(heptanedioate)]: in data set [1] (Experiment 2, 0.1 mpk), the “% TSS (serum TTR relative to vehicle)” value came to 30% and the “Serum TTR” value is 414.5 µg/mL. The “% E (encapsulation efficiency)” value in data set [2] (setting [3]) stood at 96%.

For `CCCCC/C=C\C/C=C\CCCCCCCC(=O)OCC(COC(=O)CCCCCC(=O)OCC(CCCC)CCCCCC)COC(=O)OCCCN(CC)CC` (stereo not drawn) [Compound 4, 1-(2-butyloctyl) 7-(3-(((3-(diethylamino)propoxy)carbonyl)oxy)-2-((((9Z,12Z)-octadeca-9,12-dienoyl)oxy)methyl)propyl) heptanedioate], in data set [1] (Experiment 2, 0.1 mpk), the “% TSS (serum TTR relative to vehicle)” value is 46% and the “Serum TTR” value was determined as 647.4 µg/mL. For the same compound, in data set [2] (setting [3]), the “% E (encapsulation efficiency)” value is 99%.

In the case of `CCCCCCC(CCCC)COC(=O)CCCCCC(=O)OCC(COC(=O)CCCCCC(=O)OCC(CCCC)CCCCCC)COC(=O)OCCCN(CC)CC` (stereo not drawn) [Compound 5, 7,7′-bis(2-butyloctyl) O′1,O1-(2-((((3-(diethylamino)propoxy)carbonyl)oxy)methyl)propane-1,3-diyl) di(heptanedioate)], in data set [1] (Experiment 2, 0.1 mpk), the “% TSS (serum TTR relative to vehicle)” value is reported as 25% and the “Serum TTR” value was determined as 346.5 µg/mL. Also, the “% E (encapsulation efficiency)” value in data set [2] (setting [3]) amounted to 97%.

`CCCCC/C=C\C/C=C\CCCCCCCC(=O)OCC(CCCCCCCCC(=O)OC(CCCCCCCC)CCCCCCCCC)COC(=O)CCC(CCCCCCCC)OC(=O)NCCN(C)CC` (stereo not drawn) [Compound 24, 3-methyl-15-(9-(octadecan-9-yloxy)-9-oxononyl)-9-octyl-7,12-dioxo-8,13-dioxa-3,6-diazahexadecan-16-yl (9Z,12Z)-octadeca-9,12-dienoate]: in data set [1] (Experiment 5, 0.1 mpk), the “% TSS (serum TTR relative to vehicle)” value was determined as 95% and the “Serum TTR” value is 1352.4 µg/mL. Further, in data set [2] (setting [3]), the “% E (encapsulation efficiency)” value was 98%.

Take `CCCCC/C=C\C/C=C\CCCCCCCC(=O)OCC(CCCCCCCCC(=O)OC(CCCCCCCC)CCCCCCCCC)COC(=O)CCC(CCCCCCCC)OC(=O)NCCN1CCCC1` (stereo not drawn) [Compound 25, 11-(octadecan-9-yloxy)-11-oxo-2-(((4-(((2-(pyrrolidin-1-yl)ethyl)carbamoyl)oxy)dodecanoyl)oxy)methyl)undecyl (9Z,12Z)-octadeca-9,12-dienoate]: in data set [1] (Experiment 5, 0.1 mpk), the “% TSS (serum TTR relative to vehicle)” value was 70% and the “Serum TTR” value came to 998.3 µg/mL. The “% E (encapsulation efficiency)” value in data set [2] (setting [3]) came out at 98%.

For the compound `CCCCC/C=C\C/C=C\CCCCCCCC(=O)OCC(CCCCCCCCC(=O)OC(CCCCCCCC)CCCCCCCCC)COC(=O)CCC(CCCC)OC(=O)NCCN(C)CC` (stereo not drawn) [Compound 26, 9-butyl-3-methyl-15-(9-(octadecan-9-yloxy)-9-oxononyl)-7,12-dioxo-8,13-dioxa-3,6-diazahexadecan-16-yl (9Z,12Z)-octadeca-9,12-dienoate], in data set [1] (Experiment 5, 0.1 mpk), the “% TSS (serum TTR relative to vehicle)” value stood at 35% and the “Serum TTR” value was 502.9 µg/mL. For the same compound, the “% E (encapsulation efficiency)” value in data set [2] (setting [3]) stood at 98%.

With `CCCCC/C=C\C/C=C\CCCCCCCC(=O)OCC(CCCCCCCCC(=O)OC(CCCCCCCC)CCCCCCCCC)COC(=O)CCC(CCCC)OC(=O)NCCN1CCCC1` (stereo not drawn) [Compound 27, 11-(octadecan-9-yloxy)-11-oxo-2-(((4-(((2-(pyrrolidin-1-yl)ethyl)carbamoyl)oxy)octanoyl)oxy)methyl)undecyl (9Z,12Z)-octadeca-9,12-dienoate], in data set [1] (Experiment 5, 0.1 mpk), the “% TSS (serum TTR relative to vehicle)” value is 21% and the “Serum TTR” value was 294.3 µg/mL. For the same compound, in data set [2] (setting [3]), the “% E (encapsulation efficiency)” value is given as 98%.

Consider `CCCCC/C=C\C/C=C\CCCCCCCC(=O)OCC(COC(=O)CCC(OCCCCCCCC)OCCCCCCCC)COC(=O)OCCCN(CC)CC` (stereo not drawn) [Compound 53], for which the “% TSS (serum TTR relative to vehicle)” value is 48% in data set [1] (Experiment 1, 0.1 mpk); 24% in data set [1] (Experiment 2, 0.1 mpk); 44% in data set [1] (Experiment 5, 0.1 mpk). Besides, the “Serum TTR” value turned out to be 519.9 µg/mL in data set [1] (Experiment 1, 0.1 mpk); 341.9 µg/mL in data set [1] (Experiment 2, 0.1 mpk); 624.1 µg/mL in data set [1] (Experiment 5, 0.1 mpk). Besides, the “% E (encapsulation efficiency)” value was 98% in data set [2] (LNP with 50% ionizable lipid, 38% cholesterol, 9% DSPC, 3% C13 Ether (LNP #1, Compound 53: 3% PEG2K-DMG instead)); 98% and 99% and 94% and 97% in data set [2] (setting [3]); 97% in data set [2] (Table 5, PEG lipid C13 Ether); 99% in data set [2] (Table 5, PEG lipid C14 Ether); 97% in data set [2] (Table 5, PEG lipid PEG2K-DMG).

As to `CCCCC/C=C\C/C=C\CCCCCCCC(=O)OCC(COC(=O)CCC(OCCCCCCCC)OCCCCCCCC)COC(=O)NCCN(CC)CC` (stereo not drawn) [Compound 54], in data set [1] (Experiment 1, 0.1 mpk), the “% TSS (serum TTR relative to vehicle)” value is 48% and the “Serum TTR” value stood at 512.9 µg/mL. For the same compound, in data set [2] (setting [3]), the “% E (encapsulation efficiency)” value is 88%.

Regarding `CCCCC/C=C\C/C=C\CCCCCCCC(=O)OCC(COC(=O)CCCC(=O)OC(CCCCCCCC)CCCCCCCC)COC(=O)OCCCN(CC)CC` (stereo not drawn) [Compound 56], in data set [1] (Experiment 2, 0.1 mpk), the “% TSS (serum TTR relative to vehicle)” value is 28% and the “Serum TTR” value amounted to 390.1 µg/mL. Further, the “% E (encapsulation efficiency)” value in data set [2] (setting [3]) is 95% and 97%.

In the case of `CCCCC/C=C\C/C=C\CCCCCCCC(=O)OCC(COC(=O)CCCCCC(=O)OC(CCCCCCCC)CCCCCCCC)COC(=O)OCCCN(CC)CC` (stereo not drawn) [Compound 57], in data set [1] (Experiment 2, 0.1 mpk), the “% TSS (serum TTR relative to vehicle)” value is on record as 30% and the “Serum TTR” value came out at 412.3 µg/mL. Further, the “% E (encapsulation efficiency)” value in data set [2] (setting [3]) was 96%.

Consider `CCCCC/C=C\C/C=C\CCCCCCCC(=O)OCC(COC(=O)CCCC(=O)OC(CCCCCCCC)CCCCCCCC)COC(=O)NCCN(CC)CC` (stereo not drawn) [Compound 58], for which the “% TSS (serum TTR relative to vehicle)” value in data set [1] (Experiment 1, 0.1 mpk) is recorded as 38%; in data set [1] (Experiment 2, 0.1 mpk) it was 14%. In addition, the “Serum TTR” value in data set [1] (Experiment 1, 0.1 mpk) is 406.3 µg/mL; in data set [1] (Experiment 2, 0.1 mpk), 198.8 µg/mL. Moreover, the “% E (encapsulation efficiency)” value in data set [2] (setting [3]) was 87% and 90%.

With `CCCCC/C=C\C/C=C\CCCCCCCC(=O)OCC(COC(=O)CCCCCC(=O)OC(CCCCCCCC)CCCCCCCC)COC(=O)NCCN(CC)CC` (stereo not drawn) [Compound 59], in data set [1] (Experiment 1, 0.1 mpk), the “% TSS (serum TTR relative to vehicle)” value is on record as 50% and the “Serum TTR” value was found to be 533.0 µg/mL. In data set [1] (Experiment 2, 0.1 mpk), the “% TSS (serum TTR relative to vehicle)” value was 20% and the “Serum TTR” value was determined as 276.6 µg/mL. Moreover, the “% E (encapsulation efficiency)” value in data set [2] (setting [3]) is 83% and 82%.

The values above are taken from US20260337153A1, “IONIZABLE AMINE LIPIDS” (Intellia Therapeutics, Inc., priority 2023, published 2026).
